According to PubChem BioAssay (NCI):
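Method: 48-hour compound exposure of cells in 96-well plates, five concentrations, linear interpolation of endpoints. Here, GI50 denotes the concentration required for 50% inhibition of growth. TGI denotes the concentration required for complete inhibition of growth.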 *1 amine or outer side, *2 acyl side, *3 side chain or, on linkers, in order; H or OH if unused. Where a SMILES comes first, the peptide text is derived from it. Bridges are numbered along the chain shown (N, C = ends). [ ]: non-standard residue; d: D form. The star is where a group is joined. Phe(3-Me) = Cc1cccc(C[C@H](N)C(=O)O)c1; NH(4-Cl-2-F-phenyl) = Fc1cc(Cl)ccc1N*; Pro(4R-Me) = C[C@H]1CN[C@H](C(=O)O)C1; Propanoyl(3-NMe2) = CN(C)CCC(=O)*; Hyp = O=C(O)[C@@H]1C[C@@H](O)CN1; aThr = C[C@H](O)[C@H](N)C(=O)O; Pip = O=C(O)[C@@H]1CCCCN1; CO = O=C([*:1])[*:2]

Assays:
Test in all cases: NCI anticancer screen, dose series, 48 h
TK-10 renal = tested on: TK-10 renal
EKVX NSCLC = tested on: EKVX NSCLC
IGROV1 ovarian = tested on: IGROV1 ovarian
MALME-3M melanoma = tested on: MALME-3M melanoma
UO-31 renal = tested on: UO-31 renal
K-562 leukemia = tested on: K-562 leukemia
KM12 colon = tested on: KM12 colon
SK-MEL-5 melanoma = tested on: SK-MEL-5 melanoma
SK-OV-3 ovarian = tested on: SK-OV-3 ovarian
SK-MEL-28 melanoma = tested on: SK-MEL-28 melanoma

Row | Structure (SMILES) | GI50 (TK-10 renal) [µM] | TGI (TK-10 renal) [µM] | GI50 (EKVX NSCLC) [µM] | TGI (EKVX NSCLC) [µM] | GI50 (IGROV1 ovarian) [µM] | TGI (IGROV1 ovarian) [µM] | GI50 (MALME-3M melanoma) [µM] | TGI (MALME-3M melanoma) [µM] | GI50 (UO-31 renal) [µM] | TGI (UO-31 renal) [µM] | GI50 (K-562 leukemia) [µM] | TGI (K-562 leukemia) [µM] | GI50 (KM12 colon) [µM] | TGI (KM12 colon) [µM] | GI50 (SK-MEL-5 melanoma) [µM] | TGI (SK-MEL-5 melanoma) [µM] | GI50 (SK-OV-3 ovarian) [µM] | TGI (SK-OV-3 ovarian) [µM] | GI50 (SK-MEL-28 melanoma) [µM] | TGI (SK-MEL-28 melanoma) [µM]
1 | CC[C@@]1(O)C(=O)OCc2c1cc1n(c2=O)Cc2c-1nc1ccccc1c2/C=N/OC(C)(C)C | 0.0787 | 3.52 | 0.073 | 23.8 | 0.0391 | 5.26 | 0.032 | 1.58 | < 0.01 | 0.122 | 0.0189 | > 100 | 0.0441 | 4.84 | < 0.01 | 0.102 | < 0.01 | 1.34 | 0.372 | 9.07
2 | CC/C=C\C/C=C\C[C@H]1C/C=C2/C(=O)C=C[C@H]2C/C=C\CCC(=O)O1 | 4.72 | 12.9 | 3.81 | > 14.3 | 3.71 | 11.8 | 2.85 | 8.8 | 2.23 | 4.96 | 2.84 | > 14.3 | 2.52 | 5.7 | 2.24 | 4.41 | 10 | > 14.3 | 3.12 | 8.01
3 | COc1ccc(CNc2nc(NCc3ccc(OC)cc3)c3n[nH]c(C(C)C)c3n2)cc1 | 8.29 | 24.4 | 8.09 | 23.8 | 4.38 | 13.7 | 7.5 | > 100 | 4.81 | 15 | 3.13 | 11.7 | 4.29 | > 100 | 1.57 | 3.01 | 8.3 | 22.9 | 2.13 | 16
4 | COc1cc(-c2cc(CCC(=O)Nc3ccccc3[N+](=O)[O-])n(-c3ccc([N+](=O)[O-])cc3[N+](=O)[O-])n2)ccc1O | > 100 | > 100 | > 100 | > 100 | > 100 | > 100 | > 100 | > 100 | > 100 | > 100 | > 10 | > 100 |  | > 10 | > 100 | > 100 | > 100 | > 100 | > 100 | > 100
5 | COc1ccc(/C(C)=N/NC(N)=S)c(OC)c1 |  | > 100 |  | > 100 |  | > 100 |  | > 100 |  | > 100 |  | > 100 |  | > 100 |  | > 100 |  | > 100 |  | > 100
6 | COc1ccc(C(=O)O)c(Cc2ccc3ccccc3c2)c1 |  | > 100 |  | > 100 |  | > 100 |  | > 100 |  | > 100 |  | > 100 |  | > 100 |  | > 100 |  | > 100 |  | > 100
7 | Cc1cccc(C[C@H](NC(=O)Nc2ccc(Cl)cc2F)C(=O)N[C@@H]2C(=O)N3C[C@H](OC(=O)CCN(C)C)C[C@H]3C(=O)N3CCCC[C@H]3C(=O)N[C@@H](C)C(=O)N3C[C@H](C)C[C@H]3C(=O)O[C@H]2C)c1 ({NH(4-Cl-2-F-phenyl)-CO}-[Phe(3-Me)][aThr][Hyp](Propanoyl(3-NMe2))[Pip]A[Pro(4R-Me)]; ester 2-C) | 2.16 | 10.6 | 0.976 | 6.25 | 0.94 | 2.46 | 0.567 | 1.97 | 2.17 | 7.13 | 0.3 |  | 0.746 | 2.34 | 0.46 | 1.62 | 0.487 | 5.74 | 0.706 | 2.1
